Laboratory results as given in patent US10202579B2, “Methods for producing mammalian pluripotent stem cell-derived endodermal cells” (Takara Bio Europe AB, priority 2012, dated 2019).

Tested on: hPSC lines P11032, SA181 and P11012
Test: DE differentiation of 3 hPSC lines with 5-aza-2-deoxycytidine or 5-azacytidine, qRT-PCR marker expression (Example 5)
Format: cell-based, human
Conditions: 1 μM on day 2-3
Protocol: Following the basic protocols A (hPSC lines P11032, and SA181) or B (hPSC line P11012), cells derived from 3 different hPSC lines were treated with either 10 nM 5-aza-2-deoxycytidine or 1 μM 5-azacytidine on day 2-3 during the hPS differentiation into definitive endodem.
For analysis of mRNA expression, hESC- and hiPSC-derived DE-cells were harvested on day 7 of the protocol and gene expression was analysed using qRT-PCR, normalised to the house-keeping gene CREBBP, and the results presented as relative quantification normalised to a calibrator.

Which results are given for Nc1ncn([C@@H]2O[C@H](CO)[C@@H](O)[C@H]2O)c(=O)n1 [5-azacytidine]?
mRNA expression of the DE marker Cxcr4 (day 7): No significant changes; mRNA expression of the DE marker Sox17 (day 7): No significant changes; Nanog mRNA (day 7, vs without treatment): significantly decreased; Oct4 mRNA (day 7, vs without treatment): significantly decreased; Homogeneity of derived DE population (lines give heterogeneous DE if untreated): allowed derivation of a homogeneous DE population
